The values below are quoted from earlier work in patent US11185497B2, “Intranasal delivery of dihydroergotamine by precision olfactory device” (Impel Neuropharma, Inc., priority 2018, dated 2021).

The conditions of this data set: in vivo.

For `CN1C[C@H](C(=O)N[C@]2(C)O[C@@]3(O)[C@@H]4CCCN4C(=O)[C@H](Cc4ccccc4)N3C2=O)C[C@@H]2c3cccc4[nH]cc(c34)C[C@H]21` [DHE, Dihydroergotamine], the oral bioavailability result is listed as “poor”.
